Experimental data: ChEMBL document CHEMBL1201862, “PubChem BioAssay data set” (2004)
Active and inactive are the calls of the source.

Tests used:
[1] = molecular target: G-protein coupled receptor 55 (Homo sapiens, UniProt Q9Y2T6); assay: GPR55 agonists via beta-arrestin recruitment, primary screen, imaging, U2OS cells, beta-arrestin-GFP redistribution (AID 1961); type: functional
[2] = molecular target: Tumor necrosis factor (Homo sapiens, UniProt P01375); assay: TNFa-triggered NF-kB activation inhibitors, SAR follow-up, cell-based, revised (AID 2337); type: functional
[3] = molecular target: T1, Nucleotide-binding oligomerization domain-containing protein 1 (Homo sapiens, UniProt Q9Y239); assay: NOD1 signaling inhibitors, SAR follow-up, revised (AID 2333); type: functional
T1 sequence (Q9Y239 whole entry): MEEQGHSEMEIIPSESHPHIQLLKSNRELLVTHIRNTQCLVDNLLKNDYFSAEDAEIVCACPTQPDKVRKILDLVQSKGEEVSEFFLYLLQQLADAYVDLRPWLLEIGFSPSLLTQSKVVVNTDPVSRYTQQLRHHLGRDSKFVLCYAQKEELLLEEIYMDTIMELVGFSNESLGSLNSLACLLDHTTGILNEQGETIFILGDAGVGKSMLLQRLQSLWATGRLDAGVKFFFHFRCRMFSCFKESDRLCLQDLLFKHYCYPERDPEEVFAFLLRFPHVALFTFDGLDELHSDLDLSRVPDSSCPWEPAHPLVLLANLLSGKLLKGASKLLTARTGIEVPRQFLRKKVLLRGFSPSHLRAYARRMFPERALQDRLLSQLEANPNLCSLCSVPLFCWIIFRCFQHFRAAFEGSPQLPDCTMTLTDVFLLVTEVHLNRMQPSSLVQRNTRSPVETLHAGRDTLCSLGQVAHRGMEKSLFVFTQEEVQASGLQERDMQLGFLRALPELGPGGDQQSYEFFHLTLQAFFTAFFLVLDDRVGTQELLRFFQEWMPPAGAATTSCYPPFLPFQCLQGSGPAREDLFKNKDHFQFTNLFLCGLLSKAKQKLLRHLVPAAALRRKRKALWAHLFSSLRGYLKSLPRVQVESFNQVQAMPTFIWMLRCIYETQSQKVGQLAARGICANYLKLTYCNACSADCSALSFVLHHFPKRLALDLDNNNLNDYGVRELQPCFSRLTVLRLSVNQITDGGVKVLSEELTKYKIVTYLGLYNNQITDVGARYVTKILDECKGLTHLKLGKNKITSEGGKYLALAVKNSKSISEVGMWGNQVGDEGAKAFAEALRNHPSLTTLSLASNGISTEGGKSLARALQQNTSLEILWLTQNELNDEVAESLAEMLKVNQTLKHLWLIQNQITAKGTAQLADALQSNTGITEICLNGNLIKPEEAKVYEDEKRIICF

[4] = molecular target: Nucleotide-binding oligomerization domain-containing protein 2 (Homo sapiens, UniProt Q9HC29); assay: PubChem AID 2334; type: functional
[5] = system: HEK293; assay: cells; conditions: Homo sapiens;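 also: cells exposed to compound for 14 hours overnight before viability readout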
[6] = molecular target: Glyceraldehyde-3-phosphate dehydrogenase (Homo sapiens, UniProt P04406)
[7] = molecular target: Alkaline phosphatase, placental type (Homo sapiens, UniProt P05187); assay: PLAP enzyme inhibitors, confirmation, biochemical, luminescence (AID 1512); type: functional
[8] = molecular target: T2, Alkaline phosphatase, tissue-nonspecific isozyme (Homo sapiens, UniProt P05186); assay: human TNAP enzyme inhibitors, SAR follow-up, biochemical, luminescent, dose response (AID 1056)
T2 sequence (P05186 whole entry): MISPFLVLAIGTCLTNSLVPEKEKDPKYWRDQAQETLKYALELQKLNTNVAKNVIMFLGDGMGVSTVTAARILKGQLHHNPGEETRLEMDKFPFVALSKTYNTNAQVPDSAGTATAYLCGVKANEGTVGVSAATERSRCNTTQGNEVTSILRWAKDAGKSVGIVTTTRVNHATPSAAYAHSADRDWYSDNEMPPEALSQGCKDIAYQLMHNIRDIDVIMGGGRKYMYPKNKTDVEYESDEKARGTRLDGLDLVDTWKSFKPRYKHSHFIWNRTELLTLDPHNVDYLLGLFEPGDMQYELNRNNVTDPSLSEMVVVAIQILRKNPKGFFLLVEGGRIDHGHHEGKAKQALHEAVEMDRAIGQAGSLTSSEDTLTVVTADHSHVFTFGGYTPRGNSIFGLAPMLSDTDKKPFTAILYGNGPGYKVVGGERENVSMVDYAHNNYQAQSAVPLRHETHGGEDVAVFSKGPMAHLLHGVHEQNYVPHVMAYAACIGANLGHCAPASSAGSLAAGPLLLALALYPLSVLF

[9] = molecular target: T3, Kappa-type opioid receptor (Homo sapiens, UniProt P41145); type: functional
[10] = molecular target: T4, Beta-galactosidase (Escherichia coli, UniProt Q8VNN2); type: functional
[11] = molecular target: T3, Kappa-type opioid receptor; type: functional; remark: listed apart in the source
[12] = Counterscreen for IDE inhibitors: Luminescence-based cell-based high throughput dose response assay to identify compounds that are cytotoxic to HEK cells. [Related pubchem assays: 434962 (Primary screen (IDE inhibitors in singlicate)), 449730 (Counterscreen (Cytotoxicity in triplicate)), 435028 (Confirmation (IDE inhibitors in triplicate)) …; type: functional; conditions: HEK293
[13] = molecular target: T5, Insulin-degrading enzyme (Homo sapiens, UniProt P14735); assay: Dose Response: Fluorescence polarization-based cell-based high throughput dose response assay for inhibitors of insulin-degrading enzyme (IDE). [Related pubchem assays: 434962 (Primary screen (IDE inhibitors in singlicate)), 449730 (Counterscreen (Cytotoxicity in triplicate)), 435028 (Confirmation (IDE inhibitors in triplicate)), 434984 (Summary …; type: functional
T5 sequence (P14735 whole entry): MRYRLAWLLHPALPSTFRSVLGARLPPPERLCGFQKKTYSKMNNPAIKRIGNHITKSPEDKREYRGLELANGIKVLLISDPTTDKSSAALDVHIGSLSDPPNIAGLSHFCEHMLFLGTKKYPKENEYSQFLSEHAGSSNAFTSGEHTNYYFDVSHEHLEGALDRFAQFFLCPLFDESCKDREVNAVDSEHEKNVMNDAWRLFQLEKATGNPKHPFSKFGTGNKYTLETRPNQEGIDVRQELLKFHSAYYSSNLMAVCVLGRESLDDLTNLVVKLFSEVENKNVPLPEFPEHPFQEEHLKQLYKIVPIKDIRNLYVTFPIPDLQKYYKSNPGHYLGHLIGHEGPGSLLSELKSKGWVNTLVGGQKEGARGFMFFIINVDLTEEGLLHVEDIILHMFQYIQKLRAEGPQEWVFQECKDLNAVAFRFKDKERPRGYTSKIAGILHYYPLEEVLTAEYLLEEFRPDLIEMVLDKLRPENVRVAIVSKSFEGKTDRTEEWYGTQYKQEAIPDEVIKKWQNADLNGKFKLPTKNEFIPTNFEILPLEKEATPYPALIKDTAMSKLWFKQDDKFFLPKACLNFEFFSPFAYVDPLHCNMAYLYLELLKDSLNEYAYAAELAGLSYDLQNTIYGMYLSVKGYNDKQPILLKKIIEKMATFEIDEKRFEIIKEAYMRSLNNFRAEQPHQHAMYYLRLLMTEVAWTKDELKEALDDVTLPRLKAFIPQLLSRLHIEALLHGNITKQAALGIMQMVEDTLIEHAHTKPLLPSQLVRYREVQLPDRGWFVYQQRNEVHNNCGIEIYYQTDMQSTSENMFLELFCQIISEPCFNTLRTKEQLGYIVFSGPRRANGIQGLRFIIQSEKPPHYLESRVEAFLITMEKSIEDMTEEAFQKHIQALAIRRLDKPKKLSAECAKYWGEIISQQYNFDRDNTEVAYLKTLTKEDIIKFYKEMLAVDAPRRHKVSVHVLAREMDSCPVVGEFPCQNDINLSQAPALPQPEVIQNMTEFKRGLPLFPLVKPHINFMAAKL

[14] = molecular target: T6, Hexokinase (Trypanosoma brucei, UniProt Q38C41); assay: Confirmation assay for inhibitors of Trypanosoma brucei hexokinase 1-Analogue-first series. [Related pubchem assays (depositor defined):AID1430, AID1632, AID2516, AID2560, AID2579, AID2600, AID449725, AID492951]; type: functional
T6 sequence (Q38C41 whole entry): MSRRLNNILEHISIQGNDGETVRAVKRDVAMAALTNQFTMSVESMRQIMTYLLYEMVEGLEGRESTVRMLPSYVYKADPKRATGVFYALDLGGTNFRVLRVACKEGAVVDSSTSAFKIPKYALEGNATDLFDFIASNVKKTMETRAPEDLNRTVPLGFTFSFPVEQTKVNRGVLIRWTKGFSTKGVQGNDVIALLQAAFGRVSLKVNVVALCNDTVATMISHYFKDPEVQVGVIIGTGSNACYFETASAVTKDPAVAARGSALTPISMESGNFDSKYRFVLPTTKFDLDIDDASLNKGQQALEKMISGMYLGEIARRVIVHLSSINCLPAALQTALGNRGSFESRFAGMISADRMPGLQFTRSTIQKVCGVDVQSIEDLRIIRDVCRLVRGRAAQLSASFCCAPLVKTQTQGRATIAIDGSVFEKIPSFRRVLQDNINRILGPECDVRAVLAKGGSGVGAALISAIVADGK

[15] = molecular target: T7, High affinity choline transporter 1 (Homo sapiens, UniProt Q9GZV3); assay: CHT inhibitors, dose response, cell-based, 5-point CRC, membrane potential dye (AID 504840); type: functional
T7 sequence (Q9GZV3 whole entry): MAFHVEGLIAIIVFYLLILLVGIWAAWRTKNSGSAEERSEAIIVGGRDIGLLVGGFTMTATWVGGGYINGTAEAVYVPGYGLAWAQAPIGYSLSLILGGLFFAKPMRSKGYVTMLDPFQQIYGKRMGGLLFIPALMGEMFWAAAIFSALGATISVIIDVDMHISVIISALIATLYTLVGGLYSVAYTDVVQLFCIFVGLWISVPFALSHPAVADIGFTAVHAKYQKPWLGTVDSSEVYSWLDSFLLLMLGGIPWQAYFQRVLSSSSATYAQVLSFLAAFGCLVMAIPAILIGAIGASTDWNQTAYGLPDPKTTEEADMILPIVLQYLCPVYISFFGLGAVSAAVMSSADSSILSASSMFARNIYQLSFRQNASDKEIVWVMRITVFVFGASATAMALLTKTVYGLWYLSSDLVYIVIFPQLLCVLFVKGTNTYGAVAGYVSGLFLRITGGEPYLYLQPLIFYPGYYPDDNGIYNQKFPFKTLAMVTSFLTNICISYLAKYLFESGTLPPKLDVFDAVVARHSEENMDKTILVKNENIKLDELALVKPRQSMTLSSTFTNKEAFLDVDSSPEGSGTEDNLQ

[16] = molecular target: Peroxisome proliferator-activated receptor gamma/Nuclear receptor coactivator 2 (Homo sapiens, UniProt P37231); type: functional;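 also: agonist potency for raising coactivator recruitment to the receptor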
[17] = molecular target: Peroxisome proliferator-activated receptor gamma/Nuclear receptor coactivator 1 (Homo sapiens, UniProt P37231); type: functional;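 also: agonist potency as compounds enhance coactivator SRC-1 recruitment to PPARgamma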
[18] = molecular target: Peroxisome proliferator-activated receptor gamma/Nuclear receptor coactivator 3 (Homo sapiens, UniProt P37231); type: functional;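 also: agonist potency for raising coactivator recruitment to the receptor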
[19] = molecular target: T8, Heat shock factor protein 1 (Mus musculus, UniProt P38532); assay: inhibition of MG132-induced HSE-luciferase signal, confirmation, cell-based, NIH3T3, luminescence, dose retest (AID 2382); type: functional;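 also: NIH3T3 fibroblasts with HSF1-driven luciferase reporter stressed by proteasome inhibitor MG132; luminescence from HSF1-driven luciferase expression after 8 hours of MG132 stress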
T8 sequence (P38532 whole entry): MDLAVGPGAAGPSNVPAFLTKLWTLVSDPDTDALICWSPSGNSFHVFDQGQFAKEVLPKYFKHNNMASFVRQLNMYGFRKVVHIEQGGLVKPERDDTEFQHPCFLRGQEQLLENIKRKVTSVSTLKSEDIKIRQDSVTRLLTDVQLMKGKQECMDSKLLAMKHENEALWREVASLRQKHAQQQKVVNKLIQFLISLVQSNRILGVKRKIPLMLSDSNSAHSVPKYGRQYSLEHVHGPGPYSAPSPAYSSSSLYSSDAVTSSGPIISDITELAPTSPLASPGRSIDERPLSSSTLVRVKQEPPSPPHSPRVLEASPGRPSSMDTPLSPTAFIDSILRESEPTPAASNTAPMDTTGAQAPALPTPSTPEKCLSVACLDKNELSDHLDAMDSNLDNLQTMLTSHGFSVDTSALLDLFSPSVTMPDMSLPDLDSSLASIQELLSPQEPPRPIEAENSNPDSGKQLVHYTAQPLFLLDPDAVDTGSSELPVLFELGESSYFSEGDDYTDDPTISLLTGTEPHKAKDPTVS

[20] = molecular target: T4, Beta-galactosidase; assay: beta-galactosidase enzyme inhibitors and activators, dose response, artefact control for CCR6 antagonist project, biochemical, E. coli enzyme, set 3 (AID 504712); type: functional

Sequence of Tumor necrosis factor (P01375 whole entry, the tested form may be a part): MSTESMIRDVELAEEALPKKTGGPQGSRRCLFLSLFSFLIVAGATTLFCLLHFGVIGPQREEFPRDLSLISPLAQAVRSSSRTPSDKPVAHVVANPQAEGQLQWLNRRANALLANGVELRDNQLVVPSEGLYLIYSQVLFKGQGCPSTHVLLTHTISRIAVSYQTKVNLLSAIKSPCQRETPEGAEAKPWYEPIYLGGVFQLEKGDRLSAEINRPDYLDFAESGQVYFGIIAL
Sequence of Nucleotide-binding oligomerization domain-containing protein 2 (Q9HC29 whole entry, the tested form may be a part): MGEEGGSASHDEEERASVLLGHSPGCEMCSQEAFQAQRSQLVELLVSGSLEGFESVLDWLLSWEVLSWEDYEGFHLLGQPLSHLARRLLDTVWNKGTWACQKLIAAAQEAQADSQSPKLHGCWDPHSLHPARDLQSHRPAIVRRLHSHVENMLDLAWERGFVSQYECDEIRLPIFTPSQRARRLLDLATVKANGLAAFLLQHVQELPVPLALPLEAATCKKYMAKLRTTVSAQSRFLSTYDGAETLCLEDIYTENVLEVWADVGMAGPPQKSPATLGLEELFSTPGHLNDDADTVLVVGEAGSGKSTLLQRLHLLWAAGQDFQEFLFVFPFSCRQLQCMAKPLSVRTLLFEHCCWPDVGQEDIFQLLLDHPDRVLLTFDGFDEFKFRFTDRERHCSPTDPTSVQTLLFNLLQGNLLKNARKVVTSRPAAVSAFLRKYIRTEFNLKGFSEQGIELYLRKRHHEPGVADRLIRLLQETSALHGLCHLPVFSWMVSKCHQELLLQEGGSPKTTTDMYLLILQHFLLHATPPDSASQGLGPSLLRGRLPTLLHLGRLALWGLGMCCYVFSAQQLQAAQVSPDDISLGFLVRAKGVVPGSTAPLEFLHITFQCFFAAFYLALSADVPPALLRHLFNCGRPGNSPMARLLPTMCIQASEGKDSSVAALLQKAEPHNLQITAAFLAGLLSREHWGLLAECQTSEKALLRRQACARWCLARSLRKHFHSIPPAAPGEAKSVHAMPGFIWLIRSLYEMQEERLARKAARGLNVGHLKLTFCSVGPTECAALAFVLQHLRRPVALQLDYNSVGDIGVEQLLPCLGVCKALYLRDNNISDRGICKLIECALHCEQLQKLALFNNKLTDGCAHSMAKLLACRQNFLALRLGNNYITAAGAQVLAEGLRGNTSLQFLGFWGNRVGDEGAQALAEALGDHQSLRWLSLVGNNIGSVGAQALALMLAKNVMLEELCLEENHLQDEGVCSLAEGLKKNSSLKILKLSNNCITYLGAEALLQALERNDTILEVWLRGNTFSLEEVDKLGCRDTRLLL
Sequence of G-protein coupled receptor 55 (Q9Y2T6 whole entry): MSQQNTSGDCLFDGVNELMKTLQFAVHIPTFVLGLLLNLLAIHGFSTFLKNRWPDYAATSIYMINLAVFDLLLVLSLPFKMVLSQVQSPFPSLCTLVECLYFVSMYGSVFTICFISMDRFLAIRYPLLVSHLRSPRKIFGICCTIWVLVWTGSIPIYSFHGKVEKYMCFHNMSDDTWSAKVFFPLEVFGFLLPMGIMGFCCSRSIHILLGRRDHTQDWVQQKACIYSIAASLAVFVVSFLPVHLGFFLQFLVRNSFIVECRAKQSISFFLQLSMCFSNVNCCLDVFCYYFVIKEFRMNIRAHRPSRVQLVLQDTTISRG
Sequence of Glyceraldehyde-3-phosphate dehydrogenase (P04406 whole entry): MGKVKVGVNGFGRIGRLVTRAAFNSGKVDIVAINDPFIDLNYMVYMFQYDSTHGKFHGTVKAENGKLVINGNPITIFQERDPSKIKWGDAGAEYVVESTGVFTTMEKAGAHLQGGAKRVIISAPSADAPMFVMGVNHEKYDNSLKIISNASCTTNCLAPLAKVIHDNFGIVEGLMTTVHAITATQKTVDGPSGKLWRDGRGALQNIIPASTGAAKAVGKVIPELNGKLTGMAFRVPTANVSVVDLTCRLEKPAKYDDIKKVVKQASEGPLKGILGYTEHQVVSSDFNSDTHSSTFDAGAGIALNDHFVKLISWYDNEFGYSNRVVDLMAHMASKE
T4 sequence (Q8VNN2 whole entry): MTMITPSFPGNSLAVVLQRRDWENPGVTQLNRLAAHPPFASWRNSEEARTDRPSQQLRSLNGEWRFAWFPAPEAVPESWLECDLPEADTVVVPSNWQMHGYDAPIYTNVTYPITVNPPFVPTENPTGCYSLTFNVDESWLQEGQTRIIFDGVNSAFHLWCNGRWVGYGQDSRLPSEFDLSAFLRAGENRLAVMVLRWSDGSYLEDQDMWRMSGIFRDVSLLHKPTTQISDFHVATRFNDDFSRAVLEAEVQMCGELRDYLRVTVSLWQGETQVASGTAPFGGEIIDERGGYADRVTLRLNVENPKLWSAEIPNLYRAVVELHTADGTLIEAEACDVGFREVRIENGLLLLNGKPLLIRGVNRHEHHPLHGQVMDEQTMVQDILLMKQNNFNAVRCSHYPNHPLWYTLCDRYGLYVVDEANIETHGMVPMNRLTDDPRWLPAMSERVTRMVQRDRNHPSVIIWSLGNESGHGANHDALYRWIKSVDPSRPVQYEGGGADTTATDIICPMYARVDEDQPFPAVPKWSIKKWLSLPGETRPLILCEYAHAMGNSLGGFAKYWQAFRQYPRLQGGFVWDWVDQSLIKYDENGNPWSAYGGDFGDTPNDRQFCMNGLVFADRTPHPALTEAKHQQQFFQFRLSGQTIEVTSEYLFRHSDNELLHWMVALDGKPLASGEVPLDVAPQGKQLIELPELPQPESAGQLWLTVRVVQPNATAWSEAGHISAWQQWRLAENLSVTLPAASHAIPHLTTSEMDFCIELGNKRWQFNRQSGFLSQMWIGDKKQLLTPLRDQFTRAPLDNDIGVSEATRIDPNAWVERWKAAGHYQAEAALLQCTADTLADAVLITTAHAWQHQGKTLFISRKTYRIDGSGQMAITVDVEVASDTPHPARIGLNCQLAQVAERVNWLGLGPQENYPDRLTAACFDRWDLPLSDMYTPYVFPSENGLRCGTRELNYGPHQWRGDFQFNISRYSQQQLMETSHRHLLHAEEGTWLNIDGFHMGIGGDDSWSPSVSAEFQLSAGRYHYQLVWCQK
T3 sequence (P41145 whole entry): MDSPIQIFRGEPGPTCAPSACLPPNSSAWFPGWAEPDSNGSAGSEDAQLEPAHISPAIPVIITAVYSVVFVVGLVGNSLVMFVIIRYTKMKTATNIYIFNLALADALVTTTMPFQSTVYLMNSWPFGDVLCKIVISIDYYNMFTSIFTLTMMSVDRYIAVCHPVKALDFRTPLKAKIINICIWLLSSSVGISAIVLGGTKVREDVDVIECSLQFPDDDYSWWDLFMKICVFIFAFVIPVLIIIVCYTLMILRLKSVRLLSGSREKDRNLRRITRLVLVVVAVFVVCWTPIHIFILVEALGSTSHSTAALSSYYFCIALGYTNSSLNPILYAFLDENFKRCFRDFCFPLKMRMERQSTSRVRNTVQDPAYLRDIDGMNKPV
Sequence of Alkaline phosphatase, placental type (P05187 whole entry): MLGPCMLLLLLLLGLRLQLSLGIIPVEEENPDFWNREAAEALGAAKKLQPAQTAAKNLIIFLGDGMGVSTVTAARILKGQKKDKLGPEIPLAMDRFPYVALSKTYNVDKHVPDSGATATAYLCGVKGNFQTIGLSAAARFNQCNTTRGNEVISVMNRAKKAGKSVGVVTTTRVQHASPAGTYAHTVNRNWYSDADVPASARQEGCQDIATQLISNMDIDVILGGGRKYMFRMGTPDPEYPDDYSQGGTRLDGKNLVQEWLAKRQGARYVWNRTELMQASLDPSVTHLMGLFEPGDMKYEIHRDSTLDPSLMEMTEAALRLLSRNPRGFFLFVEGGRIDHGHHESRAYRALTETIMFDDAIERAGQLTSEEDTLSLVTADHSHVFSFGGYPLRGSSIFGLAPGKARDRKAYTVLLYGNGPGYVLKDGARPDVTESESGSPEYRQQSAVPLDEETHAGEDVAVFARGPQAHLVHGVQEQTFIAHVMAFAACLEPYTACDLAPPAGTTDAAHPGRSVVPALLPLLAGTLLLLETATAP

COc1ccccc1CNC(=O)c1oc2ccccc2c1C
EC50 [1]: 3.85 µM (active)

CCc1cc(C(=O)NC2CCCc3c2cnn3-c2ccccc2F)no1 (centres undefined)
IC50 [2]: > 20 µM (inactive)
IC50 [3]: 17.5 µM (active)
IC50 [4]: > 20 µM (inactive)
IC50 [5]: > 20 µM (inactive)

O=C(c1cc(-c2cc(F)c(Cl)cc2Cl)n[nH]1)N1CCOCC1
IC50 [6]: > 100 µM (not active)
IC50 [7]: > 100 µM (inactive)
IC50 [8]: 3.37 µM (active)

O=C1/C(=C\c2ccc(O)cc2)SC(=S)N1c1cccnc1
IC50 [9]: 11.4 µM (active)
EC50 [10]: 14.6 µM (active)
IC50 [11]: > 32 µM

O=C(c1ccco1)N1CCN(c2ccnc3cc(Cl)ccc23)CC1
IC50 [12]: 18.2 µM (not active)
IC50 [13]: > 18.6 µM (not active)

COc1ccc(C(=O)Nc2cc(F)ccc2C(=O)O)cc1
IC50 [14]: 24.8 µM (active)

COc1ccc2sn(-c3ccccc3)c(=O)c2c1
IC50 [14]: 3.22 µM (active)

O=c1c2ccccc2[s+]([O-])n1-c1cccc(F)c1 (centres undefined)
IC50 [14]: > 25 µM (inactive)

COc1ccccc1Cn1c(SCC(=O)C(C)(C)C)nc2cc(C(=O)N3CCC4(CC3)OCCO4)ccc2c1=O
EC50 [1]: 4.58 µM (active)

Cc1ccc(-c2nnc(N3CC(C)OC(C)C3)c3ccccc23)cc1 (centres undefined)
IC50 [15]: 17.4 µM (active)

Cn1nccc1C(=O)N[C@H]1CCCc2c1cnn2-c1ccccc1F
IC50 [2]: 0.994 µM (active)
IC50 [3]: 0.781 µM (active)
IC50 [4]: 1.12 µM (active)
IC50 [5]: > 20 µM (inactive)

CCOc1ccc(C(=O)NC2CCCc3c2cnn3-c2ccccc2F)cc1 (centres undefined)
IC50 [2]: > 20 µM (inactive)
IC50 [3]: 12.8 µM (active)
IC50 [4]: 18.5 µM (active)
IC50 [5]: > 20 µM (inactive)

Cc1occc1C(=O)N/N=C/c1ccc(Br)s1
EC50 [16]: > 79.4 µM (not active)
EC50 [17]: > 79.4 µM (not active)
EC50 [18]: > 79.4 µM (not active)

O=C(Cc1ccccc1)Nc1cccc(N2C(=O)C=CC2=O)c1
EC50 [19]: 19 µM (active)
IC50 [20]: > 66.6 µM (inactive)

CN1/C(=C\C(=O)COC(=O)c2ccccc2O)C(C)(C)c2ccccc21
EC50 [1]: 1.67 µM (active)

Cc1cc(C)c(S(=O)(=O)Nc2cnc3ccccc3c2)c(C)c1
IC50 [6]: > 100 µM (not active)
IC50 [8]: > 100 µM (inactive)
